Laboratory results: paper PMC5152921, “Evolutionary and Functional Diversification of the Vitamin D Receptor-Lithocholic Acid Partnership” (PLoS ONE, 2016)

Legend:
Assay in all cases: Mammalian 2-hybrid assay (VDR-coregulator interaction, HepG2)
Assay type in all cases: cell-based
Conditions in all cases: 100 μM LCA
Bichir VDR = target: T1, Bichir VDR (Polypterus senegalus, UniProt A0A088GJ14)
T1 sequence (A0A088GJ14 1-421): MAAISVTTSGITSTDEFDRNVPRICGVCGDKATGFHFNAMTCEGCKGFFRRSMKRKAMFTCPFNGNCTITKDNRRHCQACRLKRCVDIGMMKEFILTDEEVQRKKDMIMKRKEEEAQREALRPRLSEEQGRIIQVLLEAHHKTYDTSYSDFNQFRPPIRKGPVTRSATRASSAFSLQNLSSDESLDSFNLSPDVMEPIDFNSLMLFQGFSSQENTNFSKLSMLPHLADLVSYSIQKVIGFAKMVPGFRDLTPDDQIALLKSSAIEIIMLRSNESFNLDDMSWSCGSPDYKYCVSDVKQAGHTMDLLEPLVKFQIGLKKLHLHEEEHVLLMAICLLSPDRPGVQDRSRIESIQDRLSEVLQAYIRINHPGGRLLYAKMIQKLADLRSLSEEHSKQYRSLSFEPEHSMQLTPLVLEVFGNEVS
T1 sequence (P19793 1-462 partner): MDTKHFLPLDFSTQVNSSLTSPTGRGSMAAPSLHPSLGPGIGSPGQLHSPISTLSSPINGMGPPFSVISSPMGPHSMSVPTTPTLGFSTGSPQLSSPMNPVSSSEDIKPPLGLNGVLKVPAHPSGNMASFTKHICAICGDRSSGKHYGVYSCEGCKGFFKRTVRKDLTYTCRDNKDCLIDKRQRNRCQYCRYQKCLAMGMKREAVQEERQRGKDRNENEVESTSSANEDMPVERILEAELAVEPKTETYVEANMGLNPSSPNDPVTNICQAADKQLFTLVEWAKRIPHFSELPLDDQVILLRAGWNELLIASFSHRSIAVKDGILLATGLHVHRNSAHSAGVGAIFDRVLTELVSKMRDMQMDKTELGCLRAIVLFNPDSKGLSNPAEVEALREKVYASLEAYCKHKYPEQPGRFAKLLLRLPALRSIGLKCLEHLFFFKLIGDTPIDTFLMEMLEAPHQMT
Source text: (§1) Prey constructs included full-length VDRs fused to the herpes simplex VP16 activation domain (pVP16-VDR). Bait constructs consisted of either full-length wild-type human RXR (pM-RXRWT), a truncated human RXR mutant (pM-RXRAF2), or the defined NR box of each member of the SRC/p160 family (pM-SRC1_241-386, pM-GRIP1_479-767, or pM-ACTR392-1005) fused to the yeast Gal4 DNA-binding domain. Reporters included the Gal4 luciferase reporter (5xGal4-TATA-Luc) and pRL-CMV as an internal luciferase control.
(§2) HepG2 cells were seeded into 96-well tissue culture plates as described above and transfected with Lipofectamine 2000 the following day. Each well received 33.6 ng pVP16-VDR, 33.6 ng pM-coregulator (where indicated), 126.6 ng 5XGal4-TATA-Luc, and 3 ng pRL-CMV. […] Positive controls were treated with 1,25D3 and vehicle controls were treated with ethanol. Luciferase activity was measured 24 hours post-exposure using the Dual-Glo Luciferase Assay System described above. Raw luciferase data were normalized to the pRL-CMV luciferase control. VDR-coregulator response was normalized to the pVP16-VDR in the absence of bait constructs. Results were analyzed using a two-way ANOVA followed by Bonferroni’s multiple comparisons test in Prism (GraphPad Inc, San Diego, CA). All experiments were replicated 3 times and conducted as groups of 4 replicate wells.

Medaka VDRβ = target: T2, Medaka VDRβ (Oryzias latipes, UniProt B2CCA1)
T2 sequence (B2CCA1 1-425): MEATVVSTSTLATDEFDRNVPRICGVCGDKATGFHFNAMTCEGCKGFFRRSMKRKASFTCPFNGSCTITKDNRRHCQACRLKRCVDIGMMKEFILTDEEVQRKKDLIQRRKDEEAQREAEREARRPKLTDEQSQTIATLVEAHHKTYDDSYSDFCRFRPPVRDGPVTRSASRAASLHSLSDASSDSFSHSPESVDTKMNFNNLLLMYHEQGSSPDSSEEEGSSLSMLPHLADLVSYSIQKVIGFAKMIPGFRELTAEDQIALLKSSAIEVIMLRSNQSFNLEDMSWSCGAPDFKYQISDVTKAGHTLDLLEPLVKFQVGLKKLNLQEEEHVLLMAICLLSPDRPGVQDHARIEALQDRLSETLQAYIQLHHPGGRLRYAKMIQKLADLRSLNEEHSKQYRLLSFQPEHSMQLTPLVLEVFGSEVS
T2 sequence (P19793 1-462 partner): T1 sequence (P19793 1-462 partner)
Source text: as §1, §2

Skate VDR = target: T3, Skate VDR (Leucoraja erinacea, UniProt A0A088GDQ7)
T3 sequence (A0A088GDQ7 1-434): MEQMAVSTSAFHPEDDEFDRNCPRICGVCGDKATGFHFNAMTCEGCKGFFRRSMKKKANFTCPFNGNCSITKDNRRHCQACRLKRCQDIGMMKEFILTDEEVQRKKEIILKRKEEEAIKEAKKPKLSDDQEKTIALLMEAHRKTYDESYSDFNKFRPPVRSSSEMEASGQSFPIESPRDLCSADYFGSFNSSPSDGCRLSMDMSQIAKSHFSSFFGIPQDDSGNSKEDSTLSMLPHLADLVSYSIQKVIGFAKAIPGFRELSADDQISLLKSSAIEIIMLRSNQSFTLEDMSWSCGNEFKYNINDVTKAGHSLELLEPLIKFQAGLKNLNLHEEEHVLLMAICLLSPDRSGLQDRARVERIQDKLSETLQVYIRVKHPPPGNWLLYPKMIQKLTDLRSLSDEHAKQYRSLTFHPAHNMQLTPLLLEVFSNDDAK
T3 sequence (P19793 1-462 partner): T1 sequence (P19793 1-462 partner)
Source text: as §1, §2

Zebrafish VDRα = target: T4, Zebrafish VDRα (Danio rerio, UniProt Q9PTN2)
T4 construct: 89.7 ng/well of full-length pSG5-VDR was co-transfected; expressed in transfected cells; host or cells: HepG2
T4 sequence (Q9PTN2 1-453): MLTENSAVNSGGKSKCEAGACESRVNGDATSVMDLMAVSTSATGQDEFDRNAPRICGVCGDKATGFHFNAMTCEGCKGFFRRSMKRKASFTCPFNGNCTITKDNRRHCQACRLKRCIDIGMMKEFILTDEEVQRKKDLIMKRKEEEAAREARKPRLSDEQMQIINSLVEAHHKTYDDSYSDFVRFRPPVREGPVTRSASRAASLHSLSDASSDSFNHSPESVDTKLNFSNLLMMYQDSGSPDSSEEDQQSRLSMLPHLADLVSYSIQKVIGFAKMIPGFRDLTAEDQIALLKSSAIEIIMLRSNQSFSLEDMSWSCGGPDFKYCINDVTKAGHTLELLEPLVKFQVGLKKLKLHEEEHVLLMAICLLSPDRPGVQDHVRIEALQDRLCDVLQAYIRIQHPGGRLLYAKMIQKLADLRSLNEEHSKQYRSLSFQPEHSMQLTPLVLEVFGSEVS
Source text: as §1, §2

[1] = any of the SRC/p160 coactivators
[2] = bait human RXRWT, presence and absence of SRC1

## C[C@H](CCC(=O)O)[C@H]1CC[C@H]2[C@@H]3CC[C@@H]4C[C@H](O)CC[C@]4(C)[C@H]3CC[C@]12C [LCA, 5β-cholanic acid-3α-ol]
Bichir VDR; [1]
  VDR-SRC/p160 coactivator interaction: No protein-protein interaction was observed
Bichir VDR; [2]
  VDR-RXRWT interaction (heterodimerization): not observed
Medaka VDRβ; bait human RXRWT
  VDR-RXRWT interaction (heterodimerization): Robust and significant VDR-RXRWT interactions
Medaka VDRβ; cotransfection of RXRWT
  VDR-SRC1 interaction: strong VDR-SRC1 interactions
Skate VDR; [1]
  VDR-SRC/p160 coactivator interaction: No protein-protein interaction was observed
Skate VDR; [2]
  VDR-RXRWT interaction (heterodimerization): not observed
Zebrafish VDRα; absence of cotransfected RXRWT
  VDR-SRC1 interaction: successfully recruited SRC1
Zebrafish VDRα; bait human RXRWT
  VDR-RXRWT interaction (heterodimerization): Robust and significant VDR-RXRWT interactions
Zebrafish VDRα; cotransfection of RXRWT
  VDR-SRC1 interaction: strong VDR-SRC1 interactions
